Assay results reported in US8231861B2, “Pancreatitis” (priority 2003, dated 2012).

Key:
[1] = test system: wild type and TLR-4 knock out mice; assay: Arginine-induced acute pancreatitis in wild type and TLR-4 knock out mice; type: in vivo; settings: for pancreatitis outcome (in words): arginine 800 mg/100 g i.p. in two halves, evaluated three days later; for MPO activity in pancreas: after arginine i.p., FIG. 10
Procedure: To evaluate the effect of the absence of TLR4 in another model of pancreatitis, a new mouse model was created. […] See, e.g., Tani et al., Dig. Dis. Sci. 35, 367-374 (1990). Briefly, pancreatitis was induced in wild type and TLR-4 knock out mice by injecting (i.p.) arginine at a dose of 800 mg/100 g body weight. This dose of arginine was divided in two parts, one half injected at the beginning of the experiment and the other half injected one hour later. Three days later mice were sacrificed and the parameters relating to the severity of pancreatitis were evaluated. Analysis was performed substantially as described above.

[2] = test system: wild type and TLR4−/− transgenic mice; settings: mouse, in vivo, ip
Procedure: Studies were performed on wild type and TLR4−/− transgenic mice weighing about 25-30 grams. Animals were housed in cages under standard conditions at room temperature with a twelve-hour light and dark cycle. Food and drinking water were available ad libitum. Secretagogue-induced pancreatitis was elicited by the hourly (twelve times) intraperitoneal injection of caerulein (50 μg/kg). […] One hour after the final caerulein or saline injection, animals were sacrificed by CO2 asphyxia, and tissue and blood samples were rapidly prepared for study. Harvested blood was allowed to clot and then centrifuged, and serum was obtained for measurement of amylase. […]
Tissue myeloperoxidase (MPO) activity was used as a marker for the sequestration of neutrophils within the pancreas by quantitating photometrically using 3,3′,5,5′-tetramethylbenzidine as a substrate. Pancreatic edema was quantitated by measuring tissue water content and expressing it as a percentage of tissue wet weight. Serum amylase activity was quantitated as described in Singh et al., J. Clin. Invest., 108:1387-1395 (2001). The extent of pancreatic acinar cell necrosis was quantitated morphometrically by an observer who was not aware of the sample identity. […] Ten randomly chosen microscopic fields (×125) were examined for each tissue sample, and the extent of acinar cell injury/necrosis was expressed as a percentage of total acinar tissue. […]

| Compound | pancreatitis outcome (in words) ([1]; TLR4 knock out mice) | MPO activity in pancreas ([1]; TLR4−/− mice) | reduction of serum amylase activity in TLR4−/− mice as compared to wild type mice ([1]; after administration of arginine i.p., FIG. 9) | pancreatitis outcome (in words) ([1]; normal (wild type) mice) | MPO activity in pancreas ([1]; wild type mice) | reduction of serum amylase activity in TLR4−/− mice as compared to wild type mice [2] |
| --- | --- | --- | --- | --- | --- | --- |
| N=C(N)NCCC[C@H](N)C(=O)O [arginine] | significantly milder pancreatitis | 6.8±6.2 | more than 2.5 fold | pancreatitis that was more severe than that observed with caerulein administration | 472±320 |  |
| caerulein |  |  |  |  |  | more than 1.6 fold |
